Assay results as given in US20250144250A1, “PH-SENSITIVE FLUOROPHORES” (The General Hospital Corporation, priority 2022, published 2025).

Assays:
Type in all cases: in vivo, mice
[1] = tested on: peritoneal dissemination of ID8 ovarian cancer; test: Intraoperative NIR imaging in mouse model of peritoneal dissemination of ovarian cancer; details: for TBR (tumor to background ratio): against normal pancreas
Procedure: Intraoperative NIR imaging: Seven-week-old female C57BL/6 mice were purchased from the Jackson Laboratory (Bar Harbor, ME) and housed in an AAALAC-certified facility at Massachusetts General Hospital (MGH). All animal procedures were performed in accordance with the Public Health Service Policy on Humane Care of Laboratory Animals and approved by the MGH IACUC (protocol #2016N000136). To establish a murine model of peritoneal dissemination of ovarian cancer, mice were injected intraperitoneally with 5×10^6 cells in 100 μL saline. In this model, macroscopic metastatic intraperitoneal nodules appear reproducibly at approximately 90 d. To perform NIR fluorescence imaging, mice were fed chlorophyll-free mouse chow (VWR International) at least 5 d prior to imaging to minimize autofluorescence. For in vivo imaging of ovarian cancer, animals were anesthetized with 100 mg/kg ketamine and 10 mg/kg xylazine subcutaneously (Webster Veterinary, Fort Devens, MA). Following anesthesia, a midline incision was made to expose the abdominal cavity. To evaluate in vivo tumor targetability of the NIR fluorophores, mice were intraperitoneally injected with 20 nmol of ovarian cancer-targeted NIR fluorophores dissolved in 100 μL saline containing 5 wt/v % BSA. The abdominal cavity was opened with a midline incision, and NIR images were obtained over 4 h of the exposed abdominal cavity. For NIR fluorescence imaging, we used a custom-built real-time intraoperative NIR imaging system as described previously. In this study, a 760 nm excitation was used at a fluence rate of 4 mW/cm^2, with white light (400-650 nm; 40,000 lux). Color and NIR fluorescence images were acquired simultaneously with custom software at rates up to 15 Hz over a 10 cm diameter field-of-view (FOV). Pseudo-colored lime green was used for NIR fluorescence in the color-NIR merged images. The imaging system was positioned at a distance of 9 inches from the surgical field. For all real-time intraoperative imaging, a standardized imaging protocol was used during and after the operation. General FOV (5 cm in dia.) was used to include the pancreas, head, duodenum, liver, and kidneys of a mouse, while closeup FOV (3.3 cm in dia.) included the pancreas, head, and duodenum. Color and NIR fluorescence images were taken simultaneously. Real-time fluorescence signal in tumors (Tu) and tumor-to-background ratio (TBR) compared to neighboring tissue was obtained over the period of imaging, and the fluorescence intensity was plotted to evaluate in vivo molecular biodistribution and clearance. All images were obtained using the same exposure time. Mice were euthanized 4 h post-injection with CO2 inhalation, and tumor tissues and the major organs, including the heart, lung, liver, pancreas, spleen, kidney, duodenum, intestine, muscle, and adnexa, were removed for ex vivo imaging and histological examination. NIR signals from resected tissues were imaged using the FLARE imaging system. The TBR was calculated using the same formula, with IT representing the intensity of the tumor tissue and IB representing the signal intensity of the surrounding tissue over the imaging period.
(§1) Evaluation of in vivo efficacy of NIR fluorophores for fluorescence-guided surgery (FGS): Having confirmed the pH sensitivity and tumor cell uptake of PH08 in vitro, we next evaluated the in vivo performance of the pH sensing NIR fluorophores in a mouse model of ovarian cancer. […] In this model, approximately 12 week post-peritoneal injection of ID8 cells, numerous nodules were observed on the peritoneum. These small nodules (<1 mm) are extremely difficult to localize and visualize in the surgical field. Thus, this model was suitable to test the performance of this fluorophore. For imaging of ovarian cancer, 20 nmol of PH08 was administered intraperitoneally. The abdominal cavity was then imaged on the custom-built imaging system. […]

[2] = tested on: ID8 ovarian cancer tumor tissue; test: Histological analysis of tumor-targetability of the NIR fluorophore; details: frozen sections, 4 h post-injection of 20 nmol
Procedure: Histological analysis of tumor-targetability of the NIR fluorophore: To determine the tissue distribution of the NIR fluorophore, tumors and major organs were removed from ID8 ovarian cancer-bearing mice 4 h post-injection with 20 nmol of PH08 in 100 μL of 5% wt/v BSA/saline. The dissected tissues were trimmed and embedded in Tissue-Tek optimum cutting temperature (OCT) compound (Sakura Finetek, Torrance, CA) without a pre-fixation step, and the tissue block was frozen at −80° C. Ten-μm thick frozen sections were cut by a cryostat (Leica, Germany). The slides were subject to fluorescence analysis first, then stained for hematoxylin and eosin (H&E). Fluorescence and brightfield images were acquired on the 4-channel Nikon TE2000 epifluorescence microscope. Image acquisition and analysis were performed using IPLab software (Scanalytics, Fairfax, VA). […] Exposure times were adjusted to obtain a similar maximum fluorescence value for each fluorescence image. […] In order to validate the tumor-specific fluorescence signal, frozen sections including both tumor and adjacent normal tissues harvested from tumor-bearing mice were examined by fluorescence microscopy. […] The fluorescence signal was mostly seen on the top 3-4 layers of cells in the tumor tissue, of which the signal was found predominantly in the extracellular space and cytoplasm.

[3] = tested on: peritoneal dissemination of ID8 ovarian cancer; test: Preclinical intraoperative fluorescence-guided surgery; details: FGS 4 h post-injection, 20 nmol
Procedure: Preclinical intraoperative fluorescence-guided surgery: We performed preclinical fluorescence-guided surgery (FGS) in mice with peritoneal dissemination of ID8 ovarian cancer using the FLARE imaging system. We injected 20 nmol of PH08 in 100 μL of 5% wt/v BSA/saline into the mouse intraperitoneally 4 h prior to the surgery. The abdominal cavity was opened with a midline incision under isoflurane inhalational anesthesia. The entire abdominal cavity was examined carefully by a surgeon using color and fluorescent imaging on the FLARE imaging system. Peritoneal dissemination was resected under white light assisted with the color and fluorescent images.
as §1, with “[…] The signal” for “For imaging of ovarian cancer, 20 nmol”, “allowed for clear visualization of” for “was administered intraperitoneally. The abdominal cavity was then imaged on”, “lesions that measured 5 mm or less than 1 mm in diameter.” for “custom-built imaging system.”

| SMILES | TBR (tumor to background ratio) [1] | TBR in words ([1]; up to 4 h after administration, compared with PH08) | fluorescence signal in tissue sections [2] | time to clear visualization of small tumors after injection ([1]; 20 nmol intraperitoneally) [min] | TBR against surrounding normal tissues and other major organs ([1]; 20 nmol intraperitoneally, within 10 min of injection) | retention / preservation of signals ([1]; post-topical application) | TBR ([1]; up to 4 h after injection) | fluorescence recovery / increase time ([1]; upon topical application) [min] | outcome of FGS [3] |
| --- | --- | --- | --- | --- | --- | --- | --- | --- | --- |
| CCN1/C(=C/C=C2\CCCC(/C=C/C3=[N+](CC)c4ccccc4C3(C)C)=C2c2ccccc2)C(C)(C)c2ccccc21 [PH03, 1-Ethyl-2-((E)-2-((E)-6-(2-((E)-1-ethyl-3,3-dimethylindolin-2-ylidene)ethylidene)-3,4,5,6-tetrahydro-[1,1′-biphenyl]-2-yl)vinyl)-3,3-dimethyl-3H-indol-1-ium iodide] | ++ (++, 2-3) | smaller TBRs |  |  |  |  |  |  |  |
| CCN1/C(=C/C=C2\CCCC(/C=C/C3=[N+](CC)c4ccccc4C3(C)C)=C2N2CCNCC2)C(C)(C)c2ccccc21 [PH08] | +++ (+++, 3-5) |  | detected throughout the tumor tissue with no substantial fluorescence signals in neighboring muscles | ≤ 10 | ~6 | at least 4 h | > 5.5 | < 10 | complete resection of metastatic nodules |
